# According to PMC10776880 (EXCLI Journal, 2023):
# Molecular target: T1, ABCG2 (breast cancer resistance protein, BCRP) (Homo sapiens, UniProt Q9UNQ0)
# T1 sequence (Q9UNQ0 1-655): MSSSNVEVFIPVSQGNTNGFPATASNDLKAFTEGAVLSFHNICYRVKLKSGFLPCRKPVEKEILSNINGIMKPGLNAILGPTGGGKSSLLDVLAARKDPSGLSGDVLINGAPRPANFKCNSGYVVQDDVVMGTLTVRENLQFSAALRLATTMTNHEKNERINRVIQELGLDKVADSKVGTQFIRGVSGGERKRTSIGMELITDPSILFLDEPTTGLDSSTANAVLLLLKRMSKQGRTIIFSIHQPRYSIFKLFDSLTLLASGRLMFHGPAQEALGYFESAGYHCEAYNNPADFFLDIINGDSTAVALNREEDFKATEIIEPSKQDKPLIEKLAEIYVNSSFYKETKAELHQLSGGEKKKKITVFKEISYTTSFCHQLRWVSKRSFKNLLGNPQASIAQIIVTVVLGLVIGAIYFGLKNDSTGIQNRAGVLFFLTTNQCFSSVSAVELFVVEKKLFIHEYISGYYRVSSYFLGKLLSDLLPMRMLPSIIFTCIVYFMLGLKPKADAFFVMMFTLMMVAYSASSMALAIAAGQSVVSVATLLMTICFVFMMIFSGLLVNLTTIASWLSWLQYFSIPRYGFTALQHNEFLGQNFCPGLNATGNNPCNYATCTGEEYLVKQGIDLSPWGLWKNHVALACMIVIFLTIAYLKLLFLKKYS
# Assay: Hoechst […] efflux inhibition by flow cytometry in HEK293-ABCG2 cells; 5D3 conformational antibody shift; kinetics with mitoxantrone
# Assay type: cell-based
compound,measurement,value
"Cc1cccc(C)c1OCC(=O)N[C@@H](Cc1ccccc1)[C@@H](O)C[C@H](Cc1ccccc1)NC(=O)[C@H](C(C)C)N1CCCNC1=O [LPV, lopinavir]",IC50,23.4 µM
